Reference: patent US6465491B2, “6-phenylpyridyl-2-amine derivatives” (Pfizer Inc., priority 1996, dated 2002)
Structures can show the parent of a compound that is named as a salt.

SMILES	melting point
Nc1cccc(-c2ccc(CCN3CCN(CCc4ccccc4)CC3)cc2)n1 [Example 1, 6-{4-[2-(4-Phenethyl-piperazin-1-yl)-ethyl]-phenyl}-pyridin-2-ylamine]	111 to 113 °C
Nc1cccc(-c2ccc(CCN3CCc4ccccc4C3)cc2)n1 [Example 6, 6-{4-[2-(3,4-Dihydro-1H-isoquinolin-2-yl)-ethyl]-phenyl}-pyridin-2-ylamine]	130 to 132 °C
Nc1cccc(-c2ccc(CCN3CCN(C(=O)c4ccco4)CC3)cc2)n1 [Example 7, (4-{2-[4-(6-Amino-pyridin-2-yl)-phenyl]-ethyl}-piperazin-1-yl)-furan-2-yl-methanone]	152 to 154 °C
Cc1cccc(N2CCN(CCc3ccc(-c4cccc(N)n4)cc3)CC2)c1 [Example 8, 6-{4-[2-(4-m-Tolyl-piperazin-1-yl)-ethyl]-phenyl}-pyridin-2-ylamine]	158 to 160 °C
CC(=O)N1CCN(CCc2ccc(-c3cccc(N)n3)cc2)CC1 [Example 10, 1-(4-{2-[4-(6-Amino-pyridin-2-yl)-phenyl]-ethyl}-piperazin-1-yl)-ethanone]	201 to 203 °C
COCC(=O)N1CCN(CCc2ccc(-c3cccc(N)n3)cc2)CC1 [Example 11, 1-(4-{2-[4-(6-Amino-pyridin-2-yl)-phenyl]-ethyl}-piperazin-1-yl)-2-methoxy-ethanone]	148 to 150 °C
Nc1cccc(-c2ccc(CCN3CCN(C(=O)C4CCCC4)CC3)cc2)n1 [Example 13, (4-{2-[4-(6-Amino-pyridin-2-yl)-phenyl]-ethyl}-piperazin-1-yl)-cyclopentyl-methanone]	185 to 187 °C
Nc1cccc(-c2ccc(CCN3CCN(c4nc(-c5ccccc5)cs4)CC3)cc2)n1 [Example 15, 6-(4-{2-[4-(4-Phenyl-thiazol-2-yl)-piperazin-1-yl]-ethyl}-phenyl)-pyridin-2-ylamine]	158 to 161 °C
CC(C)CN1CCN(CCc2ccc(-c3cccc(N)n3)cc2)CC1 [Example 17, 6-{4-[2-(4-Isobutyl-piperazin-1-yl)-ethyl]-phenyl}-pyridin-2-ylamine]	85 to 88 °C
CN(C)C1CCN(CCc2ccc(-c3cccc(N)n3)cc2)CC1 [Example 21, 6-{4-[2-(4-Dimethylamino-piperidin-1-yl)-ethyl]-phenyl}-pyridin-2-ylamine]	174 to 176 °C
Nc1cccc(-c2ccc(CCN3Cc4ccccc4C3)cc2)n1 [Example 22, 6-{4-[2-(1,3-Dihydro-isoindol-2-yl)-ethyl]-phenyl}-pyridin-2-ylamine]	140 to 143 °C
CC(C)NC(=O)CN1CCN(CCc2ccc(-c3cccc(N)n3)cc2)CC1 [Example 23, 2-(4-{2-[4-(6-Amino-pyridin-2-yl)-phenyl]-ethyl}-piperazin-1-yl)-N-isopropyl-acetamide]	163 to 165 °C
Nc1cccc(-c2ccc(CCN3CCN(C(=O)c4ccccc4)CC3)cc2)n1 [Example 25, (4-{2-[4-(6-Amino-pyridin-2-yl)-phenyl]-ethyl}-piperazin-1-yl)-phenyl-methanone]	125 to 127 °C
Nc1cccc(-c2ccc(CCN3CCN(c4nnnn4-c4ccccc4)CC3)cc2)n1 [Example 27, 6-(4-{2-[4-(1 -Phenyl-1H-tetrazol-5-yl)-piperazin-1-yl]-ethyl}-phenyl)-pyridin-2-ylamine]	212 to 214 °C
Cc1ccc(NC(=O)N2CCN(CCc3ccc(-c4cccc(N)n4)cc3)CC2)cc1 [Example 30, 4-{2-[4-(6-Amino-pyridin-2-yl)-phenyl]-ethyl}-piperazine-1-carboxylic acid p-tolyl-amide]	160 to 162 °C
COc1ccc(NC(=O)N2CCN(CCc3ccc(-c4cccc(N)n4)cc3)CC2)cc1 [Example 31, 4-{2-[4-(6-Amino-pyridin-2-yl)-phenyl]-ethyl}-piperazine-1-carboxylic acid (4-methoxy-phenyl)-amide]	182 to 184 °C
Nc1cccc(-c2ccc(CCN3CCN(C(=O)NC4CCCCC4)CC3)cc2)n1 [Example 32, 4-{2-[4-(6-Amino-pyridin-2-yl)-phenyl]-ethyl}-piperazine-1-carboxylic acid cyclohexylamide]	180 to 182 °C
Nc1cccc(-c2ccc(CCN3CC4C(C3)C4NC(=O)Nc3ccccc3)cc2)n1 (stereo not shown) [Example 36, 1-(3-{2-[4-(6-Amino-pyridin-2-yl)-phenyl]-ethyl}-3-aza-bicyclo[3.1.0]hex-6-yl)-3-phenyl-urea]	192 to 194 °C
Nc1cccc(-c2ccc(CCN3CC4C(C3)C4NC(=O)Cc3ccc(F)cc3)cc2)n1 (stereo not shown) [Example 38, N-(3-{2-[4-(6-Amino-pyridin-2-yl)-phenyl]-ethyl}-3-aza-bicyclo[3.1.0]hex-6-yl)-2-(4-fluoro-phenyl)-acetamide]	161 to 163 °C
Cc1ccc(NC(=O)N2CCN(CCc3ccc(-c4cccc(N)n4)cc3)CC2)cc1C [Example 41, 4-{2-[4-(6-Amino-pyridin-2-yl)-phenyl]-ethyl}-piperazine-1carboxylic acid (3,4-dimethyl-phenyl)-amide]	122 to 125 °C

Continued, values first:

melting point	SMILES
215 to 230 °C (dec.)	Nc1cccc(-c2ccc(CCNC3C4CC5CC(C4)CC3C5)cc2)n1 (stereo not shown) (as salt: hydrochloride) [Example 116, 6-{4-[2-(Adamantan-2-ylamino)-ethyl]-phenyl}-pyridin-2-ylamine]
60 to 70 °C (dec.)	Nc1cccc(-c2ccc(CCNC3Cc4ccccc4C3)cc2)n1 (as salt: hydrochloride) [Example 117, 6-{4-[2-(Indan-2-ylamino)-ethyl]-phenyl}-pyridin-2-ylamine]
150 to 163 °C (dec.)	Nc1cccc(-c2ccc(CCN(Cc3ccncc3)Cc3ccncc3)cc2)n1 (as salt: hydrochloride) [Example 120, 6-{4-[2-(Bis-pyridin-4-ylmethyl-amino)-ethyl]-phenyl}-pyridin-2-ylamine]
120 to 130 °C	Nc1cccc(-c2ccc(CCCNC3CCc4ccccc4C3)cc2)n1 (stereo not shown) (as salt: hydrochloride) [Example 127, 6-{4-[3-(1,2,3,4-Tetrahydro-naphthalen-2-ylamino)-propyl]-phenyl}-pyridin-2-ylamine]
242 to 250 °C	Cc1cc(N)nc(-c2ccc(CCN3CCN(CCc4ccccc4)CC3)cc2)c1 (as salt: hydrochloride) [Example 128, 6-{4-[2-(4-Phenethyl-piperazin-1-yl)-ethyl]-phenyl}-4-methyl-pyridin-2-ylamine]
125 to 140 °C	Nc1cccc(-c2ccc(CCCN3CCN(CCc4ccccc4)CC3)cc2)n1 (as salt: hydrochloride) [Example 129, 6-{4-[3-(4-Phenethyl-piperazin-1-yl)-propyl]-phenyl}-pyridin-2-ylamine]
120 °C (dec.)	Nc1cccc(-c2cccc(CCN3CCN(CCc4ccccc4)CC3)c2)n1 (as salt: hydrochloride) [Example 130, 6-{3-[2-(4-Phenethyl-piperazin-1-yl)-ethyl]-phenyl}-pyridin-2-ylamine]
236 to 238 °C	Nc1cccc(-c2ccc(CNCCc3ccccc3)cc2)n1 (as salt: hydrochloride) [Example 135, 6-[4-(Phenethylamino-methyl)-phenyl]-pyridin-2-ylamine]
> 250 °C	CN(Cc1ccc(-c2cccc(N)n2)cc1)C1CCCCC1 (as salt: hydrochloride) [Example 136, 6-{4-[(Cyclohexyl-methyl-amino)-methyl]-phenyl}-pyridin-2-ylamine]
> 250 °C	Nc1cccc(-c2ccc(CN3CCCCC3)cc2)n1 (as salt: hydrochloride) [Example 138, 6-(4-Piperidin-1-ylmethyl-phenyl)-pyridin-2-ylamine]
185 to 187 °C	Nc1cccc(-c2ccc(CNC3Cc4ccccc4C3)cc2)n1 (as salt: hydrochloride) [Example 139, 6-[4-(Indan-2-ylaminomethyl)-phenyl]-pyridin-2-ylamine]
75 to 85 °C	Nc1cccc(-c2ccc(CCN(CC3CCCCC3)CC3CCCCC3)cc2)n1 (as salt: salt) [Example 124, 6-{4-[2-(Bis-cyclohexylmethyl-amino)-ethyl]-phenyl}-pyridin-2-ylamine]
190 to 195 °C	Nc1cccc(-c2ccc(CCN3CCC(N)CC3)cc2)n1 (as salt: trifluoroacetate) [Example 67, 6-{4-[2-(4-Amino-piperidin-1-yl)-ethyl]-phenyl}-pyridin-2-ylamine]
88 to 94 °C	Cc1cccc(NC(=O)N2CCN(CCc3ccc(-c4cccc(N)n4)cc3)CC2)c1 [Example 45, 4-{2-[4-(6-Amino-pyridin-2-yl)-phenyl]-ethyl}-piperazine-1-carboxylic acid m-tolyl-amide]
172 to 181 °C	Nc1cccc(-c2ccc(CCN3CCN(C(=O)NCc4ccccc4)CC3)cc2)n1 [Example 47, 4-{2-[4-(6-Amino-pyridin-2-yl)-phenyl]-ethyl}-piperazine-1-carboxylic acid benzylamide]
185 to 187 °C	Nc1cccc(-c2ccc(CCN3CCN(c4nnnn4-c4ccc(F)cc4)CC3)cc2)n1 [Example 48, 6-[4-(2-{4-[1-(4-Fluoro-phenyl)-1H-tetrazol-5-yl]-piperazin-1-yl}-ethyl)-phenyl]-pyridin-2-ylamine]
140 °C (dec.)	NC(=O)CNC1C2CN(CCc3ccc(-c4cccc(N)n4)cc3)CC21 (stereo not shown) [Example 52, 2-(3-{2-[4-(6-Amino-pyridin-2-yl)-phenyl]-ethyl}-3-aza-bicyclo[3.1.0]hex-6-ylamino)-acetamide]
165 to 167 °C	Nc1cccc(-c2ccc(CCN3CCN(CCc4ccc(F)cc4)CC3)cc2)n1 [Example 53, 6-[4-(2-{4-[2-(4-Fluoro-phenyl)-ethyl]-piperazin-1-yl}-ethyl)-phenyl]-pyridin-2-ylamine]
90 °C (dec.)	Nc1cccc(-c2ccc(CCN3CCC(NC(=O)Cc4ccc(F)cc4)C3)cc2)n1 (stereo not shown) [Example 56, N-(1-{2-[4-(6-Amino-pyridin-2-yl)-phenyl]-ethyl}-pyrrolidin-3-yl)-2-(4-fluoro-phenyl)-acetamide]
60 to 70 °C	Nc1cccc(-c2ccc(CCNCCCCCc3ccccc3)cc2)n1 [Example 126, 6-{4-[2-(5-Phenyl-pentylamino)-ethyl]-phenyl}-pyridin-2-ylamine]
